Results as given in paper PMC5514153, “Targeting PTPRZ inhibits stem cell-like properties and tumorigenicity in glioblastoma cells” (Scientific Reports, 2017).
Where two headings read alike, the source gives them in different places.

Key:
PTPRZ1 V1911F = molecular target: T1, PTPRZ1 V1911F (Homo sapiens, UniProt P23471, V1911F); experiment: Inhibitor sensitivity of point mutant PTPRZ1 V1911F; type: biochemical; conditions: 10 µM, vs wild-type PTPRZ1
T1 construct: Point mutants of the PTPRZ1-ICR, PTPRG-ICR, and PTPN1 catalytic domain were generated; GST (N); made in house
Text: Figure 5 Structural basis for PTPRZ inhibition of NAZ2329. (A) An enlarged view of the X-ray structure of human PTPRZ1-D1 complexed with NAZ2329 (PDB ID: 5H08) (left), X-ray structure of the apo (open) form of PTPRZ1-D1 (PDB ID: 5AWX, ref. [6], middle) and a computer-modeled structure of the closed form of PTPRZ1-D1 complexed with a competitive inhibitor, SCB4380 (ref. [6], right), are shown. PTPRZ1-D1 is shown as a gray surface representation, in which Cys1933 at the active site and Val-1911 at the bottom of the allosteric pocket are indicated in red and yellow, respectively. Inhibitors are colored according to the atomic species in a stick figure representation as follows: oxygen (red), nitrogen (blue), sulfur (yellow), and carbon (green). The bottom figures show the conformation of the WPD loop (orange) as cartoon representations, in which Asp1901 and Cys1933 are indicated by orange and red spheres, respectively. Side chains of Arg1939 at the active site, Met1902 in the WPD loop, and Val-1911 at the bottom of the allosteric binding area are also shown in the stick representation. (B) LigPlot representation of the NAZ2329 interaction with PTPRZ1-D1. The predicted hydrogen bonds (broken black lines) and residues (red spoked arcs) involved in the hydrophobic interaction are shown. […]

[1] = test system: paxillin at Tyr-118 in C6 cells; experiment: Paxillin Tyr-118 phosphorylation in C6 cells (Western blot); type: cell-based, rat; conditions: 25 µM
Procedure: Figure 7 Cellular effects of NAZ2329 on the malignant phenotypes of C6 cells. (A) Phosphorylation of paxillin at Tyr-118. C6 cells were incubated with NAZ2329 for the indicated periods. Immunoprecipitated paxillin was analyzed by Western blotting using anti-pY118-paxillin and anti-paxillin. Blots are representative of five independent cultures. […] (B) Cell proliferation assay. C6 cells were incubated for 48 h with NAZ2329 in normal medium containing 2% FBS. […] (C) Boyden chamber assay. Cells were allowed to migrate for 3 h. DAPI-stained nuclei are shown before (total) and after (migrated) the removal of cells remaining in the top chamber. Scale bars, 100 µm. […] (D,E) Sphere formation (D) and SOX2 expression (E). C6 cells were cultured in CSC medium for 7 days with indicated concentrations of NAZ2329. Images are representative of five independent cultures. Scale bars, 100 µm. […] (F) Self-renewal of C6 spheres. […]
After precleaning the extracts with Protein G Sepharose (#17-0618-02, GE Healthcare), samples were subjected to immunoprecipitation with Protein G Sepharose coated with a mouse anti-paxillin antibody. […] The binding of these antibodies was detected with Luminata Forte Western HRP substrate (Millipore) and imaged with a chemiluminescent image analyzer system (EZ-Caputure MG, Atto Corp).

C6 cells = experiment: Boyden chamber migration assay, C6 cells; type: cell-based, rat; conditions: 3 h
Procedure: Figure 7 Cellular effects of NAZ2329 on the malignant phenotypes of C6 cells. (A) Phosphorylation of paxillin at Tyr-118. C6 cells were incubated with NAZ2329 for the indicated periods. Immunoprecipitated paxillin was analyzed by Western blotting using anti-pY118-paxillin and anti-paxillin. Blots are representative of five independent cultures. […] (B) Cell proliferation assay. C6 cells were incubated for 48 h with NAZ2329 in normal medium containing 2% FBS. […] (C) Boyden chamber assay. Cells were allowed to migrate for 3 h. DAPI-stained nuclei are shown before (total) and after (migrated) the removal of cells remaining in the top chamber. Scale bars, 100 µm. […] (D,E) Sphere formation (D) and SOX2 expression (E). C6 cells were cultured in CSC medium for 7 days with indicated concentrations of NAZ2329. Images are representative of five independent cultures. Scale bars, 100 µm. […] (F) Self-renewal of C6 spheres. C6 spheres were initially developed in CSC medium for 7 days, followed by an incubation with NAZ2329 in CSC medium for 5 days. Images are representative of five independent cultures. Scale bars, 100 µm. […] Full-length blots and gels are presented in Supplementary Fig. S7.
This assay was performed as described previously. […] Cells were allowed to migrate for 3 h, and the number of cells that migrated to the lower surface was counted under a conventional fluorescence microscope.

[2] = Plasma and brain levels after intraperitoneal injection; type: in vivo, C57BL6 mice; conditions: for concentration at 1 h: mouse, ip, C57BL6 mice, 1 h after i.p. 30 mg/kg, two female mice
Text: NAZ2329 successfully suppresses the cell proliferation and cell migration of the differentiated glioblastoma cells, as well as cell sphere formation (Figs 7 to 8). NAZ2329 is the first cell-permeable R5 RPTP inhibitor. […] Nevertheless, NAZ2329 is a potentially valuable lead therapeutic for the development of drugs that function through allosteric inhibitory mechanisms against PTPs, such as PTPRZ and PTPRG.

T1 sequence (P23471 1663-2315 V1911F limits assumed): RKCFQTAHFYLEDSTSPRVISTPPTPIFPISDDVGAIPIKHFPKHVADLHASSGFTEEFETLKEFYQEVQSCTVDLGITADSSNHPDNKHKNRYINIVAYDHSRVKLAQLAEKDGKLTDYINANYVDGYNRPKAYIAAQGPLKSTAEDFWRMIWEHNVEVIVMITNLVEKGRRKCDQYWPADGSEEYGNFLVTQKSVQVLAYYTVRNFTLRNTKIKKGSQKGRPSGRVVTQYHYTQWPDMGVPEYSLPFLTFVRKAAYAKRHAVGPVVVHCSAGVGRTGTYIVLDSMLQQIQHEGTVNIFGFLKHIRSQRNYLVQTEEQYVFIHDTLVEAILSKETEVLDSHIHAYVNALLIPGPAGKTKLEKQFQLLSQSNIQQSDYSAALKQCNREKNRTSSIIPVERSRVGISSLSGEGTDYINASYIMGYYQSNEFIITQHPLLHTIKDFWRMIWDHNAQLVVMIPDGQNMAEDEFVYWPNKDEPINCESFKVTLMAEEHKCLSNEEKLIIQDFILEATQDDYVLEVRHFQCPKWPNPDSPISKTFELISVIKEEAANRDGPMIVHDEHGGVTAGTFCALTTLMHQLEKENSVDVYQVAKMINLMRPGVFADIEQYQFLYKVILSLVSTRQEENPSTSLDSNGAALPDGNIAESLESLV

effect of V1911F substitution on sensitivity to inhibitor (PTPRZ1 V1911F): markedly reduced the sensitivity
BBB permeability ([2]; from plasma and brain levels 1 h after i.p. 30 mg/kg): poor BBB permeability
concentration at 1 h ([2]; brain, read-out: average level in brain): 300 ng/g
concentration at 1 h ([2]; plasma, read-out: average level in plasma): 22000 ng/mL
Compound: CCOc1ccc(C(F)(F)F)cc1CSc1ccsc1C(=O)NS(=O)(=O)c1ccccc1 [NAZ2329]
phosphorylation level of paxillin at Tyr-118 [1]: significantly enhanced the phosphorylation level
cell migration (C6 cells): inhibited
